# From patent US10214531B2 (Institute for Drug Discovery, LLC, priority 2013, dated 2019)
# pIC50: −log10 of the molar value. Where a name gives a salt, the structure may show the parent alone.
# Molecular target: recombinant human AMCase (Homo sapiens, UniProt Q9BZP6)
# Assay: Human AMCase Activity Assay
# Type: biochemical
# Conditions: recombinant hAMCase, 4-methylumbelliferyl chitobioside substrate, citrate buffer pH 5.2, 37° C., 60 minutes; read-out: Activity (IC50 value key)
# Outline: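 Recombinant human enzyme with fluorogenic 4-methylumbelliferyl β-D-N,N′-diacetylchitobioside substrate in citrate buffer, pH 5.2, 60 min at 37 °C in the dark with shaking. Read-out is 4MU fluorescence at 460 nm.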
# Sequence of recombinant human AMCase (Q9BZP6 22-476): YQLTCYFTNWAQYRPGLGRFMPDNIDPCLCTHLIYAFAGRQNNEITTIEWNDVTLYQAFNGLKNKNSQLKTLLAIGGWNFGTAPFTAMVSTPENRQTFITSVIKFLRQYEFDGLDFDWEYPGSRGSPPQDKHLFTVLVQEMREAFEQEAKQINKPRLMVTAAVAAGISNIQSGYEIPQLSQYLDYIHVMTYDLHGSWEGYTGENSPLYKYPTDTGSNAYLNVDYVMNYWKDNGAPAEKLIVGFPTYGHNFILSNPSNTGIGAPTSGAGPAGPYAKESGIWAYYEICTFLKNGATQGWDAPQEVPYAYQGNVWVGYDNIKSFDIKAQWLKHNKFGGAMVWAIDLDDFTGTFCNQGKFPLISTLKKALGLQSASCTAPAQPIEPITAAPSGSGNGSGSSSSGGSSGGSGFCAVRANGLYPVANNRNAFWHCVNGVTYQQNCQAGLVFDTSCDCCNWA
row,Compound,pIC50
1,"CCc1ccc(OC(C)C(=O)N2CCN(c3nc(N)n[nH]3)CC2)cc1 (stereo not shown) [Example 31, 1-(4-(3-amino-1H-1,2,4-triazol-5-yl)piperazin-1-yl)-2-(4-ethylphenoxy)propan-1-one]",< 4.00
2,"CN(CCc1ccc(Br)cc1)C1CCN(c2nc(N)n(C)n2)CC1 [Example 166, 1-(5-amino-1-methyl-1H-1,2,4-triazol-3-yl)-N-(4-bromophenethyl)-N-methylpiperidin-4-amine]",< 4.00
3,"COc1ccccc1CNC(=O)C1CCN(c2nc(N)n[nH]2)CC1 [Example 197, 1-(3-amino-1H-1,2,4-triazol-5-yl)-N-(2-methoxybenzyl)piperidine-4-carboxamide]",< 4.00
4,"CN(CCc1cccnc1)C1CCN(c2nc(N)n[nH]2)CC1 [Example 131, 1-(3-amino-1H-1,2,4-triazol-5-yl)-N-methyl-N-(2-(pyridin-3-yl)ethyl)piperidin-4-amine dihydrochloride]",4.00 to 5.00
5,"C[C@H](CN1CCN(c2nc(N)n[nH]2)CC1)Oc1ccc(Br)cc1 [Example 90, (R)-5-(4-(2-(4-bromophenoxy)propyl)piperazin-1-yl)-1H-1,2,4-triazol-3-amine]",6.00 to 7.00
6,"Nc1n[nH]c(N2CCN(CCOc3ccccc3Cl)CC2)n1 [Example 79, 5-(4-(2-(2-chlorophenoxy)ethyl)piperazin-1-yl)-1H-1,2,4-triazol-3-amine]",4.00 to 5.00
7,"COc1ccc(C(=O)NCC2CCN(c3nc(N)n[nH]3)CC2)cc1OC [Example 211, N-((1-(3-amino-1H-1,2,4-triazol-5-yl)piperidin-4-yl)methyl)-3,4-dimethoxybenzamide]",< 4.00
8,"CC(C)(C)CN(CCc1ccc(Cl)cc1)C1CCN(c2nc(N)n[nH]2)CC1 [Example 94, 1-(3-amino-1H-1,2,4-triazol-5-yl)-N-(4-chlorophenethyl)-N-neopentyl-piperidin-4-amine dihydrochloride]",> 7.00
9,"CC(Oc1cccc(F)c1F)C(=O)N1CCN(c2nc(N)n[nH]2)CC1 (stereo not shown) [Example 37, 1-(4-(3-amino-1H-1,2,4-triazol-5-yl)piperazin-1-yl)-2-(2,3-difluorophenoxy)propan-1-one]",< 4.00
10,"Nc1n[nH]c(N2CCN(C(=O)[C@@H](O)Cc3ccc(Cl)cc3)CC2)n1 [Example 221, (S)-1-(4-(3-amino-1H-1,2,4-triazol-5-yl)piperazin-1-yl)-3-(4-chlorophenyl)-2-hydroxypropan-1-one]",4.00 to 5.00
11,"CC1CN(c2nc(N)n[nH]2)CCC1N(C)CCc1ccc(Cl)cc1 (stereo not shown) [Example 154, 1-(3-amino-1H-1,2,4-triazol-5-yl)-N-(4-chlorophenethyl)-N,3-dimethylpiperidin-4-amine dihydrochloride]",6.00 to 7.00
12,"Nc1n[nH]c(N2CCN(CCOc3ccc(Cl)c4ccccc34)CC2)n1 [Example 23, 5-(4-(2-((4-chloronaphthalen-1-yl)oxy)ethyl)piperazin-1-yl)-1H-1,2,4-triazol-3-amine]",5.00 to 6.00
13,"C[C@H](CN1CCN(c2nc(N)n[nH]2)CC1)Oc1ccc(Cl)cc1 [Example 64, (R)-5-(4-(2-(4-chlorophenoxy)propyl)piperazin-1-yl)-1H-1,2,4-triazol-3-amine]",4.00 to 5.00
14,"CN(C1CCN(c2nc(N)n[nH]2)CC1)C(CO)Cc1ccc(Cl)cc1 (stereo not shown) [Example 130, 2-((1-(3-amino-1H-1,2,4-triazol-5-yl)piperidin-4-yl)(methyl)amino)-3-(4-chlorophenyl)propan-1-ol dihydrochloride]",6.00 to 7.00
15,"C[C@H](CN1CCN(c2nc(N)n[nH]2)CC1)Oc1ccc(Cl)cc1 [Example 241, (R)-5-(4-(2-(4-chlorophenoxy)propyl)piperazin-1-yl)-1H-1,2,4-triazol-3-amine dihydrochloride]",< 4.00
16,"Nc1n[nH]c(N2CCC(N(CCc3ccc(Cl)cc3)Cc3ccncc3)CC2)n1 [Example 108, 1-(3-amino-1H-1,2,4-triazol-5-yl)-N-(4-chlorophenethyl)-N-(pyridin-4-ylmethyl) piperidin-4-amine]",> 7.00
17,"Nc1n[nH]c(N2CCN(CCOc3ccc(Cl)cc3)CC2)n1 [Example 2, 5-(4-(2-(4-chlorophenoxy)ethyl)piperazin-1-yl)-1H-1,2,4-triazol-3-amine]",5.00 to 6.00
18,"CN(CCc1ccccn1)C1CCN(c2nc(N)n[nH]2)CC1 [Example 157, 1-(3-amino-1H-1,2,4-triazol-5-yl)-N-methyl-N-(2-(pyridin-2-yl)ethyl)piperidin-4-amine trihydrochloride]",4.00 to 5.00
19,"Nc1n[nH]c(N2CCC(NS(=O)(=O)Cc3ccc(Cl)cc3)CC2)n1 [Example 14, N-(1-(3-amino-1H-1,2,4-triazol-5-yl)piperidin-4-yl)-1-(4-chlorophenyl)methanesulfonamide dihydrochloride]",5.00 to 6.00
20,"CC1(C(=O)NCc2ccc(Br)cc2)CCN(c2nc(N)n[nH]2)CC1 [Example 237, 1-(3-amino-1H-1,2,4-triazol-5-yl)-N-(4-bromobenzyl)-4-methylpiperidine-4-carboxamide]",< 4.00

row,Compound,pIC50
1,"Nc1n[nH]c(N2CCC(CNC(=O)c3cc(Cl)cc(Cl)c3)CC2)n1 [Example 243, N-((1-(3-amino-1H-1,2,4-triazol-5-yl)piperidin-4-yl)methyl)-3,5-dichlorobenzamide]",< 4.00
2,"Nc1n[nH]c(N2CCN(C(=O)CC(N)c3ccc(Cl)cc3)CC2)n1 (stereo not shown) [Example 40, 3-amino-1-(4-(3-amino-1H-1,2,4-triazol-5-yl)piperazin-1-yl)-3-(4-chlorophenyl)propan-1-one]",< 4.00
3,"Cc1cccc(Cl)c1OCCN1CCN(c2nc(N)n[nH]2)CC1 [Example 87, 5-(4-(2-(2-chloro-6-methylphenoxy)ethyl)piperazin-1-yl)-1H-1,2,4-triazol-3-amine]",4.00 to 5.00
4,"Nc1nc(N2CCC(N(CCc3ccc(Cl)cc3)Cc3cccc(C(F)(F)F)c3)CC2)n[nH]1 [Example 156, 1-(3-amino-1H-1,2,4-triazol-5-yl)-N-(4-chlorophenethyl)-N-(3-(trifluoromethyl)benzyl)piperidin-4-amine]",> 7.00
5,"Nc1n[nH]c(N2CCC(CCCCO)(NS(=O)(=O)Cc3ccc(Br)cc3)CC2)n1 [Example 256, N-(1-(3-amino-1H-1,2,4-triazol-5-yl)-4-(4-hydroxybutyl)piperidin-4-yl)-1-(4-bromophenyl)methanesulfonamide]",5.00 to 6.00
6,"Cc1cccc(OC(C)C(=O)N2CCN(c3nc(N)n[nH]3)CC2)c1 (stereo not shown) [Example 36, 1-(4-(3-amino-1H-1,2,4-triazol-5-yl)piperazin-1-yl)-2-(m-tolyloxy)propan-1-one]",< 4.00
7,"Nc1n[nH]c(N2CCC(C(=O)NCc3ccccc3Cl)CC2)n1 [Example 198, 1-(3-amino-1H-1,2,4-triazol-5-yl)-N-(2-chlorobenzyl)piperidine-4-carboxamide]",< 4.00
8,"Nc1n[nH]c(N2CCC(N(CCc3ccc(Cl)cc3)Cc3ccccc3Br)CC2)n1 [Example 127, 1-(3-amino-1H-1,2,4-triazol-5-yl)-N-(2-bromobenzyl)-N-(4-chlorophenethyl)piperidin-4-amine]",> 7.00
9,"CN(CCc1ccc(Cl)c(Cl)c1)C1CCN(c2nc(N)n[nH]2)CC1 [Example 176, 1-(3-amino-1H-1,2,4-triazol-5-yl)-N-(3,4-dichlorophenethyl)-N-methylpiperidin-4-amine]",5.00 to 6.00
10,"CCC(Oc1ccc(Cl)cc1)C(=O)N1CCN(c2nc(N)n[nH]2)CC1 (stereo not shown) [Example 8, 1-(4-(3-amino-1H-1,2,4-triazol-5-yl)piperazin-1-yl)-2-(4-chlorophenoxy)-butan-1-one]",< 4.00
11,"Nc1n[nH]c(N2CCN(C(=O)[C@@H](N)Cc3ccc(Cl)cc3Cl)CC2)n1 [Example 75-1, (S)-2-amino-1-(4-(3-amino-1H-1,2,4-triazol-5-yl)piperazin-1-yl)-3-(2,4-dichlorophenyl)propan-1-one dihydrochloride]",< 4.00
12,Nc1n[nH]c(N2CCN(CCCc3ccccc3)C(CCCO)C2)n1 (stereo not shown) [Example 226],4.00 to 5.00
13,"C[C@@H](CN1CCN(c2nc(N)n[nH]2)CC1)Oc1ccc(Br)cc1 [Example 62, (S)-5-(4-(2-(4-bromophenoxy)propyl)piperazin-1-yl)-1H-1,2,4-triazol-3-amine]",6.00 to 7.00
14,"Cc1ccccc1C(=O)NCC1CCN(c2nc(N)n[nH]2)CC1 [Example 212, N-((1-(3-amino-1H-1,2,4-triazol-5-yl)piperidin-4-yl)methyl)-2-methylbenzamide]",< 4.00
15,"CN(C1CCN(c2nc(N)n[nH]2)CC1)S(=O)(=O)Cc1cccc(Cl)c1 [Example 248, N-(1-(3-amino-1H-1,2,4-triazol-5-yl)piperidin-4-yl)-2-(3-chlorophenyl)-N-methylmethanesulfonamide hydrochloride]",< 4.00
16,"Nc1nc(N2CCC(N(CCc3ccc(Cl)cc3)Cc3ccc(Cl)cc3)CC2)n[nH]1 [Example 134, 1-(3-amino-1H-1,2,4-triazol-5-yl)-N-(4-chlorobenzyl)-N-(4-chlorophenethyl)piperidin-4-amine]",> 7.00
17,"Nc1n[nH]c(N2CCC(N(CCc3ccc(Cl)cc3)Cc3ccc(F)cc3)CC2)n1 [Example 123, 1-(3-amino-1H-1,2,4-triazol-5-yl)-N-(4-chlorophenethyl)-N-(4-fluorobenzyl)piperidin-4-amine]",> 7.00
18,"Nc1n[nH]c(N2CCC(N(CCc3ccc(Cl)cc3)Cc3ccccc3-c3ccccc3)CC2)n1 [Example 114, N-([1,1′-biphenyl]-2-ylmethyl)-1-(3-amino-1H-1,2,4-triazol-5-yl)-N-(4-chlorophenethyl) piperidin-4-amine]",> 7.00
19,"Nc1n[nH]c(N2CCN(C(=O)COc3ccccc3)CC2)n1 [Example 30, 1-(4-(3-amino-1H-1,2,4-triazol-5-yl)piperazin-1-yl)-2-phenoxyethanone]",< 4.00
20,"CCCC1CN(c2nc(N)n[nH]2)CCC1NCCc1ccc(Cl)cc1 (single isomer, unassigned) [Example 231, 1-(3-amino-1H-1,2,4-triazol-5-yl)-N-(4-chlorophenethyl)-3-propylpiperidin-4-amine]",6.00 to 7.00
